In patent US8227613B2, “Heteroaryl carboxamide derivatives” (Hoffmann-La Roche Inc., priority 2008, dated 2012):

biological target: T1, human chemokine receptor 2 isoform B (CCR2B) (Homo sapiens, UniProt P41597); test: Calcium mobilization assay (FLIPR, MCP-1 stimulated CHOK1-CCR2B-A5 cells); type: cell-based; details: 20 nM MCP-1, antagonist activity, read-out: IC50 (inhibitor concentration required for 50% inhibition of specific calcium increases)
T1 construct: host or cells: CHO-K1 (CHOK1-CCR2B-A5)
T1 sequence (P41597 1-360 isoform P41597-2): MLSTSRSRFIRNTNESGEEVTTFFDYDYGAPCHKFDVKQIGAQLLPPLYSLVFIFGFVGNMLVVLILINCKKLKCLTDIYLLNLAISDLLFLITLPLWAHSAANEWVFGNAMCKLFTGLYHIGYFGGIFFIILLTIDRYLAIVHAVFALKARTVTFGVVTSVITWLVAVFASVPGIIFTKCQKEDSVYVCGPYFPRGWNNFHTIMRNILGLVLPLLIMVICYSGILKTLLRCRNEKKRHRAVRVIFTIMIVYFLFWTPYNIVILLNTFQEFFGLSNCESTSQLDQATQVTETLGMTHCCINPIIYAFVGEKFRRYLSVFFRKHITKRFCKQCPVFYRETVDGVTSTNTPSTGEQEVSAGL
Description: Calcium Mobilization Assay
CHOK1-CCR2B-A5 cells (from Euroscreen) stably overexpressing the human chemokine receptor 2 isoform B were cultured in Nutrient Hams F12 medium supplemented with 5% FBS, 100 U/ml penicillin, 100 μg/ml streptomycin, 400 μg/ml G418 and 5 μg/ml puromycin.
For the assay cells were grown overnight in 384-well black clear flat bottom polystyrene plates (Costar) at 37° C. at 5% CO2. After washing with DMEM, 20 mM Hepes, 2.5 mM probenecid, 0.1% BSA (DMEM assay buffer) cells were loaded with 4 μM Fluo-4 in the same DMEM assay buffer for 2 hours at 30° C. Excess dye was removed and cells were washed with DMEM assay buffer. 384-well compound plates were prepared with DMEM assay buffer/0.5% DMSO with or without various concentrations of test compounds. Usually compounds were tested for agonist and antagonist activity.
Test compounds were added to the assay plate and agonist activity was monitored as fluorescence for 80 seconds with a FLIPR (488 nm excitation; 510-570 nm emission; Molecular Devices). After 20-30 min. of incubation at 30° C., 20 nM MCP-1 (R&D; Roche) was added and fluorescence was monitored again for 80 seconds. Increases in intracellular calcium are reported as maximum fluorescence after agonist exposure minus basal fluorescence before exposure. Antagonist activity is indicated as inhibitor concentration required for 50% inhibition of specific calcium increases.

SMILES	IC50 [nM]
Cc1cc(-c2cccc(C(F)(F)F)c2)c(S)nc1C(=O)N1CCC(N2CCCC2)CC1 [Example 64, [6-Mercapto-3-methyl-5-(3-trifluoromethyl-phenyl)-pyridin-2-yl]-(4-pyrrolidin-1-yl-piperidin-1-yl)-methanone; [3-Methyl-6-thioxo-5-(3-trifluoromethyl-phenyl)-1,6-dihydro-pyridin-2-yl]-(4-pyrrolidin-1-yl-piperidin-1-yl)-methanone (tautomers)]	300
O=C(c1nc(O)c(-c2cccc(C(F)(F)F)c2)cc1Cl)N1CCC(N2CCCC2)CC1 [Example 23, [3-Chloro-6-hydroxy-5-(3-trifluoromethyl-phenyl)-pyridin-2-yl]-(4-pyrrolidin-1-yl-piperidin-1-yl)-methanone; 5-Chloro-6-(4-pyrrolidin-1-yl-piperidine-1-carbonyl)-3-(3-trifluoromethyl-phenyl)-1H-pyridin-2-one (tautomers)]	41
Cc1cc(-c2cccc(C(F)(F)F)c2)c(Oc2cccnc2)nc1C(=O)N1CCC(N2CCCC2)CC1 [Example 62, [3-Methyl-6-(pyridin-3-yloxy)-5-(3-trifluoromethyl-phenyl)-pyridin-2-yl]-(4-pyrrolidin-1-yl-piperidin-1-yl)-methanone]	69
Cc1cc(-c2cccc(C(F)(F)F)c2)c(-c2cnccn2)nc1C(=O)N1CCC(N2CCCC2)CC1 [Example 51, [3-Methyl-6-pyrazin-2-yl-5-(3-trifluoromethyl-phenyl)-pyridin-2-yl]-(4-pyrrolidin-1-yl-piperidin-1-yl)-methanone]	5.5
Cc1cc(-c2cccc(C(F)(F)F)c2)cnc1C(=O)N1CCC(N2CCCC2)CC1 [Example 1, [3-Methyl-5-(3-trifluoromethyl-phenyl)-pyridin-2-yl]-(4-pyrrolidin-1-yl-piperidin-1-yl)-methanone]	18
Cc1cc(-c2cccc(C(F)(F)F)c2)c(-c2cccnc2)nc1C(=O)N1CCC(N2CCCC2)CC1 [Example 16, [5-Methyl-3-(3-trifluoromethyl-phenyl)-[2,3′]bipyridinyl-6-yl]-(4-pyrrolidin-1-yl-piperidin-1-yl)-methanone]	4.2
O=C(c1ncc(-c2cccc(C(F)(F)F)c2)cc1-c1cccc(C(F)(F)F)c1)N1CCC(N2CCCC2)CC1 [Example 15, [3,5-Bis-(3-trifluoromethyl-phenyl)-pyridin-2-yl]-(4-pyrrolidin-1-yl-piperidin-1-yl)-methanone]	250
Cc1cc(-c2cccc(C(F)(F)F)c2)n(C)c(=O)c1C(=O)N1CCC(N2CCCC2)CC1 [Example 13, 1,4-Dimethyl-3-(4-pyrrolidin-1-yl-piperidine-1-carbonyl)-6-(3-trifluoromethyl-phenyl)-1H-pyridin-2-one]	58
Cc1cc(-c2cccc(C(F)(F)F)c2)c(-c2cnn[nH]2)nc1C(=O)N1CCC(N2CCCC2)CC1 [Example 32, [3-Methyl-6-(1H-[1,2,3]triazol-4-yl)-5-(3-trifluoromethyl-phenyl)-pyridin-2-yl]-(4-pyrrolidin-1-yl-piperidin-1-yl)-methanone]	23
Cc1cc(-c2cc(C(F)(F)F)ccc2Cl)cnc1C(=O)N1CCC(N2CCCC2)CC1 [Example 30, [5-(2-Chloro-5-trifluoromethyl-phenyl)-3-methyl-pyridin-2-yl]-(4-pyrrolidin-1-yl-piperidin-1-yl)-methanone]	54
Cc1cc(-c2ccc(Cl)c(Cl)c2)cnc1C(=O)N1CCC(N2CCCC2)CC1 [Example 28, [5-(3,4-Dichloro-phenyl)-3-methyl-pyridin-2-yl]-(4-pyrrolidin-1-yl-piperidin-1-yl)-methanone]	250
Cc1cc(-c2cccc(C(F)(F)F)c2)c(O)nc1C(=O)N1CCC(N2CCCC2)CC1 [Example 9, [6-Hydroxy-3-methyl-5-(3-trifluoromethyl-phenyl)-pyridin-2-yl]-(4-pyrrolidin-1-yl-piperidin-1-yl)-methanone; 5-Methyl-6-(4-pyrrolidin-1-yl-piperidine-1-carbonyl)-3-(3-trifluoromethyl-phenyl)-1H-pyridin-2-one (tautomers)]	6.4
COC(=O)c1nc(C(=O)N2CCC(N3CCCC3)CC2)c(C)cc1-c1cccc(C(F)(F)F)c1 [Example 45, 5-Methyl-6-(4-pyrrolidin-1-yl-piperidine-1-carbonyl)-3-(3-trifluoromethyl-phenyl)-pyridine-2-carboxylic acid methyl ester]	7.5
CNC(=O)c1nc(C(=O)N2CCC(N3CCCC3)CC2)c(C)cc1-c1cccc(C(F)(F)F)c1 [Example 58, 5-Methyl-6-(4-pyrrolidin-1-yl-piperidine-1-carbonyl)-3-(3-trifluoromethyl-phenyl)-pyridine-2-carboxylic acid methylamide]	190
Cc1cc(-c2cccc(C(F)(F)F)c2F)cnc1C(=O)N1CCC(N2CCCC2)CC1 [Example 36, [5-(2-Fluoro-3-trifluoromethyl-phenyl)-3-methyl-pyridin-2-yl]-(4-pyrrolidin-1-yl-piperidin-1-yl)-methanone]	180
C#Cc1nc(C(=O)N2CCC(N3CCCC3)CC2)c(C)cc1-c1cccc(C(F)(F)F)c1 [Example 24, [6-Ethynyl-3-methyl-5-(3-trifluoromethyl-phenyl)-pyridin-2-yl]-(4-pyrrolidin-1-yl-piperidin-1-yl)-methanone]	4.8
Cc1cc(-c2cccc(C(F)(F)F)c2)c(-c2cnc(O)nc2O)nc1C(=O)N1CCC(N2CCCC2)CC1 [Example 54, [6-(2,4-Dihydroxy-pyrimidin-5-yl)-3-methyl-5-(3-trifluoromethyl-phenyl)-pyridin-2-yl]-(4-pyrrolidin-1-yl-piperidin-1-yl)-methanone]	120
Cc1cc(-c2cc(F)cc(C(F)(F)F)c2)cnc1C(=O)N1CCC(N2CCCC2)CC1 [Example 37, [5-(3-Fluoro-5-trifluoromethyl-phenyl)-3-methyl-pyridin-2-yl]-(4-pyrrolidin-1-yl-piperidin-1-yl)-methanone]	36
Cc1cc(-c2cccc(C(F)(F)F)c2)c(-c2cnn(C)c2)nc1C(=O)N1CCC(N2CCCC2)CC1 [Example 50, [3-Methyl-6-(1-methyl-1H-pyrazol-4-yl)-5-(3-trifluoromethyl-phenyl)-pyridin-2-yl]-(4-pyrrolidin-1-yl-piperidin-1-yl)-methanone]	18
O=C(c1ncc(-c2cccc(C(F)(F)F)c2)cc1Cl)N1CCC(N2CCCC2)CC1 [Example 14, [3-Chloro-5-(3-trifluoromethyl-phenyl)-pyridin-2-yl]-(4-pyrrolidin-1-yl-piperidin-1-yl)-methanone]	12
CC(=O)Nc1nc(C(=O)N2CCC(N3CCCC3)CC2)c(C)cc1-c1cccc(C(F)(F)F)c1 [Example 11, N-[5-Methyl-6-(4-pyrrolidin-1-yl-piperidine-1-carbonyl)-3-(3-trifluoromethyl-phenyl)-pyridin-2-yl]-acetamide]	71
COc1nc(C(=O)N2CCC(N3CCCC3)CC2)c(C)cc1-c1cccc(C(F)(F)F)c1 [Example 8, [6-Methoxy-3-methyl-5-(3-trifluoromethyl-phenyl)-pyridin-2-yl]-(4-pyrrolidin-1-yl-piperidin-1-yl)-methanone]	65
Cc1cc(-c2cccc(C(F)(F)F)c2)c(-c2cnc(N)nc2)nc1C(=O)N1CCC(N2CCCC2)CC1 [Example 39, [6-(2-Amino-pyrimidin-5-yl)-3-methyl-5-(3-trifluoromethyl-phenyl)-pyridin-2-yl]-(4-pyrrolidin-1-yl-piperidin-1-yl)-methanone]	5.8
Cc1cc(-c2cccc(C(F)(F)F)c2)c(NCCO)nc1C(=O)N1CCC(N2CCCC2)CC1 [Example 27, [6-(2-Hydroxy-ethylamino)-3-methyl-5-(3-trifluoromethyl-phenyl)-pyridin-2-yl]-(4-pyrrolidin-1-yl-piperidin-1-yl)-methanone]	41
COc1ncc(-c2nc(C(=O)N3CCC(N4CCCC4)CC3)c(C)cc2-c2cccc(C(F)(F)F)c2)cn1 [Example 44, [6-(2-Methoxy-pyrimidin-5-yl)-3-methyl-5-(3-trifluoromethyl-phenyl)-pyridin-2-yl]-(4-pyrrolidin-1-yl-piperidin-1-yl)-methanone]	12
Cc1cc(-c2cccc(C(F)(F)F)c2)c(=O)n(C)c1C(=O)N1CCC(N2CCCC2)CC1 [Example 63, 1,5-Dimethyl-6-(4-pyrrolidin-1-yl-piperidine-1-carbonyl)-3-(3-trifluoromethyl-phenyl)-1H-pyridin-2-one]	32
Cc1cc(-c2cccc(C(F)(F)F)c2)c(-c2cn[nH]c2)nc1C(=O)N1CCC(N2CCCC2)CC1 [Example 48, [3-Methyl-6-(1H-pyrazol-4-yl)-5-(3-trifluoromethyl-phenyl)-pyridin-2-yl]-(4-pyrrolidin-1-yl-piperidin-1-yl)-methanone]	12
